Results published in patent publication US9771341B2, “Piperazine carbamates and methods of making and using same” (Abide Therapeutics, Inc., priority 2015, dated 2017).

Columns and labels:
Assay type in all cases: biochemical
MAGL = target: T1, MAGL (Mus musculus, UniProt O35678); assay: In vitro competitive activity-based protein profiling (mouse), MAGL; conditions: for inhibition at 1 µM: mouse proteome, in vitro, read-out: % Inhibition at 1 μM MAGL; for IC50: mouse brain membrane fraction or cell lysates, 30 min preincubation at 37° C, FP-Rh probe
T1 construct: Proteomes (mouse brain membrane fraction or cell lysates); from tissue; host or cells: mouse brain membrane fraction (or unspecified cell lysates)
T1 sequence (O35678 1-303): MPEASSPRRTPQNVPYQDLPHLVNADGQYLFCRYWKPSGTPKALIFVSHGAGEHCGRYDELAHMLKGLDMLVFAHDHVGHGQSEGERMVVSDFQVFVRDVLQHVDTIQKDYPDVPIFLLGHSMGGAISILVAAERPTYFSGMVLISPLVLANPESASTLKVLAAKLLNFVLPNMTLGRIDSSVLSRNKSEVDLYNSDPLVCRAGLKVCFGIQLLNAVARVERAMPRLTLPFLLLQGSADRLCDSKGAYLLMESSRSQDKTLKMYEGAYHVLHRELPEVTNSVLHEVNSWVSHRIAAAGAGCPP
Protocol: (§1) In Vitro Competitive Activity-Based Protein Profiling (Mouse).
(§2) Proteomes (mouse brain membrane fraction or cell lysates) (50 μL, 1.0 mg/mL total protein concentration) were preincubated with varying concentrations of inhibitors at 37° C. After 30 min, FP-Rh (1.0 μL, 50 μM in DMSO) was added and the mixture was incubated for another 30 min at 37° C. Reactions were quenched with SDS loading buffer (50 μL-4×) and run on SDS-PAGE.

FAAH = target: T2, FAAH (Mus musculus, UniProt O08914); assay: In vitro competitive activity-based protein profiling (mouse), FAAH; conditions: for inhibition at 1 µM: mouse proteome, in vitro; for IC50: mouse brain membrane fraction or cell lysates, 30 min preincubation at 37° C, FP-Rh probe
T2 construct: Proteomes (mouse brain membrane fraction or cell lysates); from tissue; host or cells: mouse brain membrane fraction (or unspecified cell lysates)
T2 sequence (O08914 1-579): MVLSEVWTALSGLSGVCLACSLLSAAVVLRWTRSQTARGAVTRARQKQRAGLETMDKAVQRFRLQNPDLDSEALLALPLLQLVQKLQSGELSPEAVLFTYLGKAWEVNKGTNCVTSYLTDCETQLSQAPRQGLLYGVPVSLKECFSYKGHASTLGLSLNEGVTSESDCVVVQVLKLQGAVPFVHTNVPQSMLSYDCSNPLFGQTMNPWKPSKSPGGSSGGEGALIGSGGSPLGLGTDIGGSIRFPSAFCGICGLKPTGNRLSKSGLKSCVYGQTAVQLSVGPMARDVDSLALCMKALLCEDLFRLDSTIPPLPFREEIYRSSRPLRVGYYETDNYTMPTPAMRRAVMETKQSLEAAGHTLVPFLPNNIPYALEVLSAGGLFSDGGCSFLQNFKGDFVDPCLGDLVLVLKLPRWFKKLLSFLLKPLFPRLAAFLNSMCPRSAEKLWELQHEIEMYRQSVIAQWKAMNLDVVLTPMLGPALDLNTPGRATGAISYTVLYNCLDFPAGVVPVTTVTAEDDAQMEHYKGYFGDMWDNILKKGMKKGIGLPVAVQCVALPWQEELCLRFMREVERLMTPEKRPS
Protocol: as §1
as §2, with “SDS-PAGE. Following gel imaging, serine hydrolase activity was determined by measuring fluorescent intensity of gel bands corresponding to MAGL, ABHD6 and FAAH using ImageJ 1.43u software.” for “SDS-PAGE.”

ABHD6 = target: T3, ABHD6 (Mus musculus, UniProt Q8R2Y0); assay: In vitro competitive activity-based protein profiling (mouse), ABHD6; conditions: for inhibition at 1 µM: mouse proteome, in vitro, read-out: % Inhibition at 1 μM ABHD6; for IC50: mouse brain membrane fraction or cell lysates, 30 min preincubation at 37° C, FP-Rh probe
T3 construct: Proteomes (mouse brain membrane fraction or cell lysates); from tissue; host or cells: mouse brain membrane fraction (or unspecified cell lysates)
T3 sequence (Q8R2Y0 1-336): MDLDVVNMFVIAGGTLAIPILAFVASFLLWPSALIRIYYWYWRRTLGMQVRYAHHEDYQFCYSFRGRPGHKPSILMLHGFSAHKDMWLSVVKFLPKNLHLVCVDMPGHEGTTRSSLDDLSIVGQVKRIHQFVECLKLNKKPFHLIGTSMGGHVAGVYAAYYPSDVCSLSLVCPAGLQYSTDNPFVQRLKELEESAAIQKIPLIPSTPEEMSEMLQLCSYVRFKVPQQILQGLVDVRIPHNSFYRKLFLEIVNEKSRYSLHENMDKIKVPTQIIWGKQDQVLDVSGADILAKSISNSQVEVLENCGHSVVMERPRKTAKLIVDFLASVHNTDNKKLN
Protocol: as §1, §2

## O=C(O)C1CCN(c2cc(CN3CCN(C(=O)OC(C(F)(F)F)C(F)(F)F)CC3)cc(C(F)(F)F)c2)C1 (stereo not drawn) [Example 89, 1-(3-((4-(((1,1,1,3,3,3-hexafluoropropan-2-yl)oxy)carbonyl)piperazin-1-yl)methyl)-5-(trifluoromethyl)phenyl)pyrrolidine-3-carboxylic acid]
MAGL
  inhibition at 1 µM: > 75%
  IC50: 100 to 1000 nM
FAAH
  inhibition at 1 µM: < 25%
  IC50: > 1000 nM
ABHD6
  inhibition at 1 µM: > 75%
  IC50: < 100 nM

## COc1c(CN2CCN(C(C)=O)CC2)cccc1CN1CCN(C(=O)OC(C(F)(F)F)C(F)(F)F)CC1 [Example 7, 1,1,1,3,3,3-hexafluoropropan-2-yl 4-(3-((4-acetylpiperazin-1-yl)methyl)-2-methoxybenzyl)piperazine-1-carboxylate]
MAGL
  inhibition at 1 µM: > 75%
  IC50: 100 to 1000 nM
FAAH
  inhibition at 1 µM: < 25%
  IC50: > 1000 nM
ABHD6
  inhibition at 1 µM: > 75%
  IC50: 100 to 1000 nM

## O=C(OC(C(F)(F)F)C(F)(F)F)N1CCN(Cc2ccc(CN3CCCC3)cc2OC(F)(F)F)CC1 [Example 25, 1,1,1,3,3,3-hexafluoropropan-2-yl 4-(4-(pyrrolidin-1-ylmethyl)-2-(trifluoromethoxy)benzyl)piperazine-1-carboxylate]
MAGL
  inhibition at 1 µM: > 75%
  IC50: 100 to 1000 nM
FAAH
  inhibition at 1 µM: < 25%
  IC50: > 1000 nM
ABHD6
  inhibition at 1 µM: < 25%
  IC50: > 1000 nM

## COc1c(CN2CCC(F)CC2)cccc1CN1CCN(C(=O)OC(C(F)(F)F)C(F)(F)F)CC1 [Example 9, 1,1,1,3,3,3-hexafluoropropan-2-yl 4-(3-((4-fluoropiperidin-1-yl)methyl)-2-methoxybenzyl)piperazine-1-carboxylate]
MAGL
  inhibition at 1 µM: > 75%
  IC50: < 100 nM
FAAH
  inhibition at 1 µM: < 25%
  IC50: > 1000 nM
ABHD6
  inhibition at 1 µM: > 75%
  IC50: 100 to 1000 nM

## O=C(OC(C(F)(F)F)C(F)(F)F)N1CCN(Cc2ccc(C(F)(F)F)c(N3CCC(CO)CC3)c2)CC1 [Example 82, 1,1,1,3,3,3-hexafluoropropan-2-yl 4-(3-(4-(hydroxymethyl)piperidin-1-yl)-4-(trifluoromethyl)benzyl)piperazine-1-carboxylate]
MAGL
  inhibition at 1 µM: > 75%
  IC50: < 100 nM
FAAH
  inhibition at 1 µM: < 25%
  IC50: > 1000 nM
ABHD6
  inhibition at 1 µM: > 75%
  IC50: 100 to 1000 nM

## O=C(OC(C(F)(F)F)C(F)(F)F)N1CCN(Cc2ccc(N3CC4CCC(C3)O4)cc2F)CC1 [Example 27, 1,1,1,3,3,3-hexafluoropropan-2-yl 4-(4-(8-oxa-3-azabicyclo[3.2.1]octan-3-yl)-2-fluorobenzyl)piperazine-1-carboxylate]
MAGL
  inhibition at 1 µM: > 75%
  IC50: < 100 nM
FAAH
  inhibition at 1 µM: < 25%
  IC50: > 1000 nM
ABHD6
  inhibition at 1 µM: 25 to 75%
  IC50: 100 to 1000 nM

## CCOC(=O)C1CCCN1c1cc(C(F)(F)F)ccc1CN1CCN(C(=O)OC(C(F)(F)F)C(F)(F)F)CC1 (stereo not drawn) [Example 70, 1,1,1,3,3,3-hexafluoropropan-2-yl 4-(2-(2-(ethoxycarbonyl)pyrrolidin-1-yl)-4-(trifluoromethyl)benzyl)piperazine-1-carboxylate]
MAGL
  inhibition at 1 µM: > 75%
  IC50: < 100 nM
FAAH
  inhibition at 1 µM: < 25%
  IC50: > 1000 nM
ABHD6
  inhibition at 1 µM: > 75%
  IC50: 100 to 1000 nM

## Cc1c(CN2CCN(C(=O)OC(C(F)(F)F)C(F)(F)F)CC2)cccc1CN1CCN(S(C)(=O)=O)CC1 [Example 8, 1,1,1,3,3,3-hexafluoropropan-2-yl 4-(2-methyl-3-((4-(methylsulfonyl)piperazin-1-yl)methyl)benzyl)piperazine-1-carboxylate]
MAGL
  inhibition at 1 µM: > 75%
  IC50: < 100 nM
FAAH
  inhibition at 1 µM: < 25%
  IC50: > 1000 nM
ABHD6
  inhibition at 1 µM: > 75%
  IC50: < 100 nM

## Cc1c(CN2CCOCC2)cccc1CN1CCN(C(=O)OC(C(F)(F)F)C(F)(F)F)CC1 [Example 21, 1,1,1,3,3,3-hexafluoropropan-2-yl 4-(2-methyl-3-(morpholinomethyl)benzyl)piperazine-1-carboxylate]
MAGL
  inhibition at 1 µM: > 75%
  IC50: 100 to 1000 nM
FAAH
  inhibition at 1 µM: < 25%
  IC50: > 1000 nM
ABHD6
  inhibition at 1 µM: > 75%
  IC50: 100 to 1000 nM

## O=C(OC(C(F)(F)F)C(F)(F)F)N1CCN(Cc2cccc(CN3CCOCC3)c2F)CC1 [Example 22, 1,1,1,3,3,3-hexafluoropropan-2-yl 4-(2-fluoro-3-(morpholinomethyl)benzyl)piperazine-1-carboxylate]
MAGL
  inhibition at 1 µM: > 75%
  IC50: < 100 nM
FAAH
  inhibition at 1 µM: < 25%
  IC50: > 1000 nM
ABHD6
  inhibition at 1 µM: > 75%
  IC50: 100 to 1000 nM

## CC(=O)N[C@@H]1CCN(Cc2cccc(CN3CCN(C(=O)OC(C(F)(F)F)C(F)(F)F)CC3)c2C)C1 [Example 17, 1,1,1,3,3,3-hexafluoropropan-2-yl (R)-4-(3-((3-acetamidopyrrolidin-1-yl)methyl)-2-methylbenzyl)piperazine-1-carboxylate]
MAGL
  inhibition at 1 µM: > 75%
  IC50: 100 to 1000 nM
FAAH
  inhibition at 1 µM: < 25%
  IC50: > 1000 nM
ABHD6
  inhibition at 1 µM: > 75%
  IC50: 100 to 1000 nM

## O=C(OC(C(F)(F)F)C(F)(F)F)N1CCN(Cc2ccc(C(F)(F)F)cc2N2CCC(CO)C2)CC1 (stereo not drawn) [Example 73, 1,1,1,3,3,3-hexafluoropropan-2-yl 4-(2-(3-(hydroxymethyl)pyrrolidin-1-yl)-4-(trifluoromethyl)benzyl)piperazine-1-carboxylate]
MAGL
  inhibition at 1 µM: > 75%
  IC50: < 100 nM
FAAH
  inhibition at 1 µM: < 25%
  IC50: > 1000 nM
ABHD6
  inhibition at 1 µM: > 75%
  IC50: 100 to 1000 nM

## O=C(OC(C(F)(F)F)C(F)(F)F)N1CCN(Cc2cc(Cl)cc(CN3CCCC3)c2)CC1 [Example 29, 1,1,1,3,3,3-hexafluoropropan-2-yl 4-(3-chloro-5-(pyrrolidin-1-ylmethyl)benzyl)piperazine-1-carboxylate]
MAGL
  inhibition at 1 µM: > 75%
  IC50: 100 to 1000 nM
FAAH
  inhibition at 1 µM: < 25%
  IC50: > 1000 nM
ABHD6
  inhibition at 1 µM: < 25%
  IC50: > 1000 nM

## O=C(O)C1CN(c2cc(CN3CCN(C(=O)OC(C(F)(F)F)C(F)(F)F)CC3)ccc2C(F)(F)F)CCO1 (stereo not drawn) [Example 83, 4-(5-((4-(((1,1,1,3,3,3-hexafluoropropan-2-yl)oxy)carbonyl)piperazin-1-yl)methyl)-2-(trifluoromethyl)phenyl)morpholine-2-carboxylic acid]
MAGL
  inhibition at 1 µM: > 75%
  IC50: < 100 nM
FAAH
  inhibition at 1 µM: < 25%
  IC50: > 1000 nM
ABHD6
  inhibition at 1 µM: < 25%
  IC50: 100 to 1000 nM

## O=C(O)[C@@H]1CCCN1c1cc(CN2CCN(C(=O)OC(C(F)(F)F)C(F)(F)F)CC2)ccc1C(F)(F)F [Example 77, (5-((4-(((1,1,1,3,3,3-hexafluoropropan-2-yl)oxy)carbonyl)piperazin-1-yl)methyl)-2-(trifluoromethyl)phenyl)proline]
MAGL
  inhibition at 1 µM: > 75%
  IC50: 100 to 1000 nM
FAAH
  inhibition at 1 µM: < 25%
  IC50: > 1000 nM
ABHD6
  inhibition at 1 µM: > 75%
  IC50: > 1000 nM
